Entries after “also recorded” stand apart in the source; their conditions may differ. Read-outs that look alike come from different tables or passages of the source.
How the values were obtained:
[1] = tested on: isolated rat liver mitochondria; experiment: Residual functional capacity / inhibitory effect on ADP-stimulated (state 3) oxygen consumption; format: biochemical; settings: for inhibition of ADP-stimulated oxygen consumption: screening at 100 μM
[2] = tested on: isolated rat liver mitochondria; experiment: Uncoupling activity: increase in basal (state 4) oxygen consumption by oxygraphy; format: biochemical; settings: for Measured Uncoupling (% uncoupling ± SEM @ 100 μM): Table 1A, relative to ADP-stimulated respiration = 100%; for slope of the linear portion of the concentration-to-activity relationship: logarithmic scales
[3] = test conc. 25 μM, functional capacity (state 3 minus state 4 rate) as % of vehicle-treated mitochondria
[4] = test conc. 100 μM, functional capacity (state 3 minus state 4 rate) as % of vehicle-treated mitochondria
[5] = Suppl. Table 1, 100 μM, 2-3 mitochondrial preparations
[6] = test conc. 25 μM, increase in basal (state 4) oxygen consumption as % of average ADP-stimulated (state 3) rate in vehicle-treated mitochondria
[7] = test conc. 100 μM, increase in basal (state 4) oxygen consumption as % of average ADP-stimulated (state 3) rate in vehicle-treated mitochondria

SMILES	Inhibitory effect (%) ([1]; test conc. 25 μM)	Residual capacity (%) [1, 3] [%]	Inhibitory effect (%) ([1]; test conc. 100 μM)	Residual capacity (%) [1, 4] [%]	Measured Uncoupling Activity (% uncoupling ± SEM @ 100 μM) [2, 5] [% uncoupling]	Uncoupling (%) [2, 6] [%]	Uncoupling (%) [2, 7] [%]	further results
COc1ccc(C2CC(=O)c3c(O)cc(O)cc3O2)cc1O (racemic) [(±) hesperetin, hesperetin]	8	91 ± 8	14	81 ± 2	5 ± 1	1 ± 1	5 ± 1	
O=C1C[C@@H](c2ccc(O)cc2)Oc2cc(O)cc(O)c21 (racemic) [(±) naringenin, naringenin]			31	65 ± 7	4 ± 2		4 ± 2	
Oc1cc(O)c2c(c1)OC(c1ccc(O)c(O)c1)C(O)C2 (single isomer, unassigned; (+)) [(+) catechin, catechin]			2	98 ± 5	−2 ± 0		−2 ± 0	
CC(=O)c1ccc(O)cc1 [4-acetylphenol]			13	87 ± 1	0 ± 0		0 ± 0	uncoupling activity ([2]; 100 μM, result in words): lack of activity
O=C(/C=C/c1ccccc1)c1ccc(O)cc1 [4′-hydroxychalcone]	7	80 ± 2	0	26 ± 19	74 ± 14	13 ± 2	74 ± 14	Measured Uncoupling (% uncoupling ± SEM @ 100 μM) ([2]; 100 μM): 74 ± 14 % uncoupling
O=c1ccoc2cc(O)ccc12 [7-hydroxychromone]			14	86 ± 2	0 ± 0		0 ± 0	uncoupling activity ([2]; 100 μM, result in words): no appreciable activity; also recorded: lack of activity
O=C1c2ccccc2C(=O)c2ccccc21 [anthraquinone]			15	85 ± 21	−1 ± 1		−1 ± 1	uncoupling activity ([2]; 100 μM, result in words): inactive
O=c1cc(-c2ccc(O)cc2)oc2cc(O)cc(O)c12 [apigenin]	28	63 ± 9	44	37 ± 8	19 ± 3	9 ± 1	19 ± 3	
O=C(O)c1ccccc1 [benzoic acid]								Inhibitory effect (%) [1]: 4%; Residual capacity (%) [1]: 96 ± 3%; Measured Uncoupling Activity (% uncoupling ± SEM @ 100 μM) [2]: 0 ± 1 % uncoupling; Uncoupling (%) [2]: 0 ± 1%
COc1ccc(-c2coc3cc(O)cc(O)c3c2=O)cc1 [biochanin A]	0	27 ± 27	0	0 ± 0	103 ± 22	75 ± 36	103 ± 22	uncoupling activity ([2]; 100 μM, result in words): complete uncoupling; Measured Uncoupling (% uncoupling ± SEM @ 100 μM) ([2]; 100 μM): >100 % uncoupling
O=C(/C=C/c1ccc(O)c(O)c1)OCCc1ccccc1 [caffeic acid phenethyl ester]	5	39 ± 12	43	0 ± 0		56 ± 13	57 ± 35	
O=C(O)/C=C/c1ccc(O)c(O)c1 [caffeic acid]			21	79 ± 9	0 ± 1		0 ± 1	
Cc1ccc(C(C)C)cc1O [carvacrol]			10	83 ± 2	7 ± 2		7 ± 2	
Oc1ccccc1O [catechol]			12	88 ± 1	0 ± 0		0 ± 0	
O=c1cc(-c2ccc(O)cc2)oc2c(-c3c(O)cc(O)c4c(=O)cc(-c5ccc(O)cc5)oc34)c(O)cc(O)c12 [cupressuflavone]			5	95 ± 4	−2 ± 0		−2 ± 0	
O=c1c(-c2ccc(O)cc2)coc2cc(O)ccc12 [daidzein]	19	78 ± 5	26	68 ± 4	6 ± 1	3 ± 1	6 ± 1	
O=c1c(O)c(-c2ccccc2O)oc2cc(O)cc(O)c12 [datiscetin]	33	52 ± 9	67	0 ± 0	33 ± 3	15 ± 2	33 ± 3	inhibition of ADP-stimulated oxygen consumption [1]: inhibitory activity; uncoupling potency compared with 2,4-dinitrophenol ([2]; dose-escalation): potency on the order of that of 2,4-dinitrophenol; slope of the linear portion of the concentration-to-activity relationship ([2]; dose-escalation): 0.44

SMILES	Inhibitory effect (%) ([1]; test conc. 25 μM)	Residual capacity (%) [1, 3] [%]	Inhibitory effect (%) ([1]; test conc. 100 μM)	Residual capacity (%) [1, 4] [%]	Measured Uncoupling Activity (% uncoupling ± SEM @ 100 μM) [2, 5] [% uncoupling]	Uncoupling (%) [2, 6] [%]	Uncoupling (%) [2, 7] [%]	further results
O=C(O[C@@H]1Cc2c(O)cc(O)cc2O[C@@H]1c1cc(O)c(O)c(O)c1)c1cc(O)c(O)c(O)c1 [epigallocatechin gallate]								uncoupling activity ([2]; 100 μM, result in words): devoid of activity
COc1cc(/C=C/C(=O)O)ccc1O [ferulic acid]			9	91 ± 9	−1 ± 1		−1 ± 1	
O=c1cc(-c2ccccc2)oc2ccccc12 [flavone]			25	75 ± 13	−1 ± 2		−1 ± 2	uncoupling activity ([2]; 100 μM, result in words): inactive
Cc1cc(O)c2c(c1)C(=O)c1cc(O)cc(O)c1C2=O [frangulic acid]	41	0 ± 0	22	0 ± 0	78 ± 14	59 ± 16	78 ± 14	Measured Uncoupling (% uncoupling ± SEM @ 100 μM) ([2]; 100 μM): 78 ± 14 % uncoupling; uncoupling potency compared with 2,4-dinitrophenol ([2]; dose-escalation): potency on the order of that of 2,4-dinitrophenol; maximal inducible uncoupling ([2]; dose-escalation, 100 μM or below): complete uncoupling
O=c1c(O)c(-c2ccccc2)oc2cc(O)cc(O)c12 [galangin]	0	2 ± 2	5	0 ± 0	95 ± 9	102 ± 3	95 ± 9	uncoupling activity ([2]; 25 μM): complete uncoupling; Measured Uncoupling (% uncoupling ± SEM @ 100 μM) ([2]; 100 μM): 95 ± 9 % uncoupling; uncoupling potency compared with 2,4-dinitrophenol ([2]; dose-escalation): potency on the order of that of 2,4-dinitrophenol; slope of the linear portion of the concentration-to-activity relationship ([2]; dose-escalation): 1.39
O=C(O)c1cc(O)c(O)c(O)c1 [gallic acid]			2	98 ± 1	−2 ± 1		−2 ± 1	
O=c1c(-c2ccc(O)cc2)coc2cc(O)cc(O)c12 [genistein]	15	77 ± 1	6	20 ± 0	74 ± 4	8 ± 0	74 ± 4	Measured Uncoupling (% uncoupling ± SEM @ 100 μM) ([2]; 100 μM): 74 ± 4 % uncoupling
COc1cc(/C=C/C(=O)c2ccc(O)cc2O)ccc1O [homobutein]	15	79 ± 7	22	22 ± 3	56 ± 5	6 ± 0	56 ± 5	inhibitory effect on oxidative phosphorylation ([1]; 50 μM (FIG. 19)): inhibition of ADP-stimulated consumption; uncoupling activity ([2]; 50 μM in 0.1% DMSO (FIG. 19)): partial uncoupling; Measured Uncoupling (% uncoupling ± SEM @ 100 μM) ([2]; 100 μM): 56 ± 5 % uncoupling
Oc1ccc(O)cc1 [hydroquinone]			10	90 ± 8	0 ± 1		0 ± 1	
O=c1c(O)c(-c2ccc(O)cc2O)oc2cc(O)cc(O)c12 [morin]			60	39 ± 3	1 ± 0		1 ± 0	inhibition of ADP-stimulated oxygen consumption [1]: inhibitory activity
CC(=O)c1ccc(O)cc1 [para-acetylphenol]								uncoupling activity ([2]; 100 μM, result in words): no appreciable activity
Oc1ccc(C=Cc2cc(O)cc(O)c2)cc1 [resveratrol]								inhibition of ADP-stimulated oxygen consumption [1]: inhibitory activity
C(=Cc1ccccc1)c1ccccc1 [stilbene]								uncoupling activity ([2]; 100 μM, result in words): inactive
Oc1cc(O)cc(/C=C/c2ccc(O)c(O)c2)c1 [trans-piceatannol]					5 ± 1			
Oc1ccc(/C=C/c2cc(O)cc(O)c2)cc1 [trans-resveratrol]					2 ± 0			
C(=C\c1ccccc1)/c1ccccc1 [trans-stilbene]					−1 ± 1			
